Data published in US8796256B2 (Janssen Pharmaceutica NV, priority 2010, dated 2014).

Target: T1, ERR1 (also known as ERR-α or ERR-1) (Homo sapiens, UniProt P11474)
T1 sequence (P11474 193-421 limits assumed): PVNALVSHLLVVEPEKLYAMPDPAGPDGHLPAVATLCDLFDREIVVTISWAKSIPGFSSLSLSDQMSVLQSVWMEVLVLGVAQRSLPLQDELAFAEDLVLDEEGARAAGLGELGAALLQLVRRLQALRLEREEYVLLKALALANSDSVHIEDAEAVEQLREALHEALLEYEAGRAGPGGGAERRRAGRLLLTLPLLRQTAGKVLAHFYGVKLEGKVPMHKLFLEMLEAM
Test: TR-FRET assay (disruption of co-activator peptide binding to ERR1 LBD)
Assay type: biochemical
Settings: 6 nM 6His-ERR1LBD, 6 nM GST-SRC-2 peptide; average of 3 independent experiments
How it was run: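 Homogeneous TR-FRET measuring displacement of GST-hSRC2 co-activator peptide (6 nM) from His-tagged ERR1 LBD (6 nM), detected with α-GST Eu cryptate (30 nM) and α-His-XL665 (7.5 nM). Buffer 25 mM Tris pH 8, 2.5 mM Hepes, 20 mM KCl, 1 mM DTT, 0.05 mg/mL delipidated BSA; equilibration 4-18 h at 25° C. Hyperbolic dose-response fit, mean of 3 experiments.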

Row | EC50 [nM] | Compound
1 | 579 | N#Cc1ccc(Cn2ncc3cc(/C=C4\SC(=O)N(CC(=O)O)C4=O)ccc32)c(C(F)(F)F)c1 [Compound 346, [(5Z)-5-({1-[4-Cyano-2-(trifluoromethyl)benzyl]-1H-indazol-5-yl}methylidene)-2,4-dioxo-1,3-thiazolidin-3-yl]acetic acid]
2 | 116 | O=C(O)CN1C(=O)S/C(=C\c2ccc3c(cnn3Cc3ccc(Cl)cc3C(F)(F)F)c2F)C1=O [Compound 347, [(5Z)-5-({1-[4-Chloro-2-(trifluoromethyl)benzyl]-4-fluoro-1H-indazol-5-yl}methylidene)-2,4-dioxo-1,3-thiazolidin-3-yl]acetic acid]
3 | 7 | O=C(O)CN1C(=O)S/C(=C\c2cc3cnn(Cc4ccc(Cl)cc4C(F)(F)F)c3cc2F)C1=O [Compound 348, [(5Z)-5-({1-[4-Chloro-2-(trifluoromethyl)benzyl]-6-fluoro-1H-indazol-5-yl}methylidene)-2,4-dioxo-1,3-thiazolidin-3-yl]acetic acid]
4 | 24 | CN1CCN(N2C(=O)S/C(=C\c3ccc4c(cnn4Cc4ccc(Cl)cc4C(F)(F)F)c3)C2=O)CC1 [Compound 349, (5Z)-5-({1-[4-Chloro-2-(trifluoromethyl)benzyl]-1H-indazol-5-yl}methylidene)-3-(4-methylpiperazin-1-yl)-1,3-thiazolidine-2,4-dione]
5 | 38 | CN1CCN(N2C(=O)S/C(=C\c3ccc4c(cnn4Cc4ccc(C(F)(F)F)cc4C(F)(F)F)c3)C2=O)CC1 [Compound 350, (5Z)-5-({1-[2,4-Bis(trifluoromethyl)benzyl]-1H-indazol-5-yl}methylidene)-3-(4-methylpiperazin-1-yl)-1,3-thiazolidine-2,4-dione]
6 | 22 | O=C1S/C(=C\c2ccc3c(cnn3Cc3ccc(Cl)cc3C(F)(F)F)c2)C(=O)N1N1CCNCC1 [Compound 351, (5Z)-5-({1-[4-Chloro-2-(trifluoromethyl)benzyl]-1H-indazol-5-yl}methylidene)-3-piperazin-1-yl-1,3-thiazolidine-2,4-dione]
7 | 25 | COCCN1CCN(N2C(=O)S/C(=C\c3ccc4c(cnn4Cc4ccc(Cl)cc4C(F)(F)F)c3)C2=O)CC1 [Compound 352, (5Z)-5-({1-[4-Chloro-2-(trifluoromethyl)benzyl]-1H-indazol-5-yl}methylidene)-3-[4-(2-methoxyethyl)piperazin-1-yl]-1,3-thiazolidine-2,4-dione]
8 | 11 | NC(=O)CN1CCN(N2C(=O)S/C(=C\c3ccc4c(cnn4Cc4ccc(Cl)cc4C(F)(F)F)c3)C2=O)CC1 [Compound 353, 2-{4-[(5Z)-5-({1-[4-Chloro-2-(trifluoromethyl)benzyl]-1H-indazol-5-yl}methylidene)-2,4-dioxo-1,3-thiazolidin-3-yl]piperazin-1-yl}acetamide]
9 | 17 | O=C1S/C(=C\c2ccc3c(cnn3Cc3ccc(Cl)cc3C(F)(F)F)c2)C(=O)N1N1CCN(CCO)CC1 [Compound 354, (5Z)-5-({1-[4-Chloro-2-(trifluoromethyl)benzyl]-1H-indazol-5-yl}methylidene)-3-[4-(2-hydroxyethyl)piperazin-1-yl]-1,3-thiazolidine-2,4-dione]
10 | 20 | NN1C(=O)S/C(=C\c2ccc3c(cnn3Cc3ccc(Cl)cc3C(F)(F)F)c2)C1=O [Compound 355, (5Z)-3-Amino-5-({1-[4-chloro-2-(trifluoromethyl)benzyl]-1H-indazol-5-yl}methylidene)-1,3-thiazolidine-2,4-dione]
11 | 14 | CC(=O)NN1C(=O)S/C(=C\c2ccc3c(cnn3Cc3ccc(Cl)cc3C(F)(F)F)c2)C1=O [Compound 356, N-[(5Z)-5-({1-[4-Chloro-2-(trifluoromethyl)benzyl]-1H-indazol-5-yl}methylidene)-2,4-dioxo-1,3-thiazolidin-3-yl]acetamide]
12 | 39 | CNN1C(=O)S/C(=C\c2ccc3c(cnn3Cc3ccc(C(F)(F)F)cc3C(F)(F)F)c2)C1=O [Compound 357, (5Z)-5-({1-[2,4-Bis(trifluoromethyl)benzyl]-1H-indazol-5-yl}methylidene)-3-(methylamino)-1,3-thiazolidine-2,4-dione]
13 | 22 | CNN1C(=O)S/C(=C\c2ccc3c(cnn3Cc3ccc(Cl)cc3C(F)(F)F)c2)C1=O [Compound 358, (5Z)-5-({1-[4-Chloro-2-(trifluoromethyl)benzyl]-1H-indazol-5-yl}methylidene)-3-(methylamino)-1,3-thiazolidine-2,4-dione]
14 | 26 | O=C1S/C(=C\c2ccc3c(cnn3Cc3ccc(Cl)cc3C(F)(F)F)c2)C(=O)N1N1CCOCC1 [Compound 359, (5Z)-5-({1-[4-Chloro-2-(trifluoromethyl)benzyl]-1H-indazol-5-yl}methylidene)-3-morpholin-4-yl-1,3-thiazolidine-2,4-dione]
15 | 26 | CS(=O)(=O)NN1C(=O)S/C(=C\c2ccc3c(cnn3Cc3ccc(C(F)(F)F)cc3C(F)(F)F)c2)C1=O [Compound 360, N-[(5Z)-5-({1-[2,4-Bis(trifluoromethyl)benzyl]-1H-indazol-5-yl}methylidene)-2,4-dioxo-1,3-thiazolidin-3-yl]methanesulfonamide]
16 | 308 | CS(=O)(=O)NN1C(=O)S/C(=C\c2ccc3c(cnn3Cc3ccc(C#N)cc3C(F)(F)F)c2)C1=O [Compound 362, N-[(5Z)-5-({1-[4-Cyano-2-(trifluoromethyl)benzyl]-1H-indazol-5-yl}methylidene)-2,4-dioxo-1,3-thiazolidin-3-yl]methanesulfonamide]
17 | 59 | CS(=O)(=O)NN1C(=O)S/C(=C\c2ccc3c(cnn3Cc3ccc(F)cc3C(F)(F)F)c2)C1=O [Compound 363, N-[(5Z)-5-({1-[4-Fluoro-2-(trifluoromethyl)benzyl]-1H-indazol-5-yl}methylidene)-2,4-dioxo-1,3-thiazolidin-3-yl]methanesulfonamide]
18 | 4 | CS(=O)(=O)NN1C(=O)S/C(=C\c2ccc3c(cnn3Cc3ccc(Br)cc3C(F)(F)F)c2)C1=O [Compound 364, N-[(5Z)-5-({1-[4-Bromo-2-(trifluoromethyl)benzyl]-1H-indazol-5-yl}methylidene)-2,4-dioxo-1,3-thiazolidin-3-yl]methanesulfonamide]
19 | 23 | Cc1nn(Cc2ccc(Cl)cc2C(F)(F)F)c2ccc(/C=C3\SC(=O)N(NS(C)(=O)=O)C3=O)cc12 [Compound 365, N-[(5Z)-5-({1-[4-Chloro-2-(trifluoromethyl)benzyl]-3-methyl-1H-indazol-5-yl}methylidene)-2,4-dioxo-1,3-thiazolidin-3-yl]methanesulfonamide]
20 | 6 | CS(=O)(=O)NN1C(=O)S/C(=C\c2ccc3c(c2)c(Cl)nn3Cc2ccc(Cl)cc2C(F)(F)F)C1=O [Compound 366, N-[(5Z)-5-({3-Chloro-1-[4-chloro-2-(trifluoromethyl)benzyl]-1H-indazol-5-yl}methylidene)-2,4-dioxo-1,3-thiazolidin-3-yl]methanesulfonamide]
21 | 4 | CS(=O)(=O)NN1C(=O)S/C(=C\c2ccc3c(c2)c(I)nn3Cc2ccc(Cl)cc2C(F)(F)F)C1=O [Compound 367, N-[(5Z)-5-({1-[4-Chloro-2-(trifluoromethyl)benzyl]-3-iodo-1H-indazol-5-yl}methylidene)-2,4-dioxo-1,3-thiazolidin-3-yl]methanesulfonamide]
22 | 3 | CS(=O)(=O)NN1C(=O)S/C(=C\c2ccc3c(c2)c(F)nn3Cc2ccc(Cl)cc2C(F)(F)F)C1=O [Compound 368, N-[(5Z)-5-({1-[4-Chloro-2-(trifluoromethyl)benzyl]-3-fluoro-1H-indazol-5-yl}methylidene)-2,4-dioxo-1,3-thiazolidin-3-yl]methanesulfonamide]
23 | 64 | CS(=O)(=O)NN1C(=O)S/C(=C\c2ccc3c(c2)c(C#N)nn3Cc2ccc(C(F)(F)F)cc2C(F)(F)F)C1=O [Compound 369, N-[(5Z)-5-({1-[2,4-Bis(trifluoromethyl)benzyl]-3-cyano-1H-indazol-5-yl}methylidene)-2,4-dioxo-1,3-thiazolidin-3-yl]methanesulfonamide]
24 | 48 | CS(=O)(=O)NN1C(=O)S/C(=C\c2ccc3c(cnn3Cc3ccc(Cl)cc3C(F)(F)F)c2F)C1=O [Compound 370, N-[(5Z)-5-({1-[4-Chloro-2-(trifluoromethyl)benzyl]-4-fluoro-1H-indazol-5-yl}methylidene)-2,4-dioxo-1,3-thiazolidin-3-yl]methanesulfonamide]
25 | 9 | CS(=O)(=O)NN1C(=O)S/C(=C\c2cc3cnn(Cc4ccc(Cl)cc4C(F)(F)F)c3cc2F)C1=O [Compound 371, N-[(5Z)-5-({1-[4-Chloro-2-(trifluoromethyl)benzyl]-6-fluoro-1H-indazol-5-yl}methylidene)-2,4-dioxo-1,3-thiazolidin-3-yl]methanesulfonamide]
26 | 11 | O=C(NN1C(=O)S/C(=C\c2ccc3c(cnn3Cc3ccc(C(F)(F)F)cc3C(F)(F)F)c2)C1=O)C1CC1 [Compound 372, N-[(5Z)-5-({1-[2,4-Bis(trifluoromethyl)benzyl]-1H-indazol-5-yl}methylidene)-2,4-dioxo-1,3-thiazolidin-3-yl]cyclopropanecarboxamide]
27 | 7 | O=C(NN1C(=O)S/C(=C\c2ccc3c(cnn3Cc3ccc(Cl)cc3C(F)(F)F)c2)C1=O)C1CC1 [Compound 373, N-[(5Z)-5-({1-[4-Chloro-2-(trifluoromethyl)benzyl]-1H-indazol-5-yl}methylidene)-2,4-dioxo-1,3-thiazolidin-3-yl]cyclopropanecarboxamide]
